SMILES strings stand for the structures. ≈ marks a conversion by molar mass, not a printed value. Where two headings read alike, the source gives them in different places.

The target in series [1] is T1, human α-amylase (Homo sapiens, UniProt P0DUB6).
T1 sequence (P0DUB6 16-511): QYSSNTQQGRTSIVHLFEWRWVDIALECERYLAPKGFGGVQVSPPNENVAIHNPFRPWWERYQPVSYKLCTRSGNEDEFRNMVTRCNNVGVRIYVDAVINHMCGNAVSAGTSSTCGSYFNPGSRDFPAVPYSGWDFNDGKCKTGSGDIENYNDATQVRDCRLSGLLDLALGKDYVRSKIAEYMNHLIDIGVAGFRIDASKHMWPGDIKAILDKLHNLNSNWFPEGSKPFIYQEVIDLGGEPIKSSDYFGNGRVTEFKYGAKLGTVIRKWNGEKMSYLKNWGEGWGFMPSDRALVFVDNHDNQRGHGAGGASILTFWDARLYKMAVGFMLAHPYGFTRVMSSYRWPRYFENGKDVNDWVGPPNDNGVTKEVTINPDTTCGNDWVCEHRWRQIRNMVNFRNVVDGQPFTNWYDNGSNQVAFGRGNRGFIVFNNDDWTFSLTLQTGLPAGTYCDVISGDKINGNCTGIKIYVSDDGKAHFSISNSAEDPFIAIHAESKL
More on the design: method as in doi:10.1016/j.jff.2015.10.003. The following applies: strong (poly)phenol inhibitors, arbitrarily defined; cited from earlier work.

For another series, the target named is sucrase-isomaltase. More on the design: method as in PMID 18681440. The following applies: cited from earlier work.
The target in a further series is maltase-glucoamylase. More on the design: method as in PMID 18681440. The settings on record: cited from earlier work.
In series [2] the test system is rat intestinal α-glucosidase. More on the design: method as in PMID 28422509. The settings on record: p-nitrophenyl-glucopyranoside substrate; cited from earlier work.
For a further series, the target named is yeast α-glucosidase. The settings on record: cited from earlier work.
Series [3] concerns the target T1, human α-amylase. Briefly: human α-amylase inhibition assay. The settings on record: for Ki: Dixon plot, intercept = -Ki; for maximum inhibition of human α-amylase: individual (poly)phenol, maximum value of dose response, p < 0.05. Format: biochemical. The procedure: The human α-amylase and rat α-glucosidase inhibition assays were performed under optimised conditions as previously reported[3],[18],[52]. The ChE stock solution was dissolved in DMSO while the individual (poly)phenols were prepared in a water-EtOH solution (50:50, v/v).

Series [4] deals with Caco-2/TC7 cells. The series is described as follows: conversion of apigenin 7-O-glucoside to apigenin by differentiated Caco-2/TC7 cells. The settings on record: 150 µM, 25 and 60 min. It is filed as in vitro ADME. The procedure:
Glycosylated (poly)phenols can be hydrolysed by luminal β-glucosidase enzymes, such as lactase phlorizin hydrolase[19],[20], present in the brush border of the enterocytes, resulting in the release of the aglycone. Therefore, we explored the possibility whether the inhibition observed by apigenin-7-O-glucoside was due to the presence of apigenin after enzymic hydrolysis. Caco-2/TC7 cells were incubated with 150 µM apigenin 7-O-glucoside for 25 and 60 min. In vitro conversion of apigenin 7-O-glucoside to apigenin in Caco2/TC7 cells was negligible (Supplementary S5) confirming that apigenin 7-O-glucoside can interact directly with GLUT2 transporter protein.
Cells were seeded at 2.4 × 10^5 cells/well on 6-well plates (Corning, Appleton Woods, UK) and cultured for 21–23 d at 37 °C as described above. Cells were exposed to 150 μM of apigenin 7-O-glucoside for 25 and 60 min. After the treatment the medium was collected and analysed by HPLC as detailed above.

A further series concerns the target T2, GLUT2 (Homo sapiens, UniProt P11168).
T2 construct: endogenous in cells; host or cells: Caco-2/TC7
T2 sequence (P11168 1-524): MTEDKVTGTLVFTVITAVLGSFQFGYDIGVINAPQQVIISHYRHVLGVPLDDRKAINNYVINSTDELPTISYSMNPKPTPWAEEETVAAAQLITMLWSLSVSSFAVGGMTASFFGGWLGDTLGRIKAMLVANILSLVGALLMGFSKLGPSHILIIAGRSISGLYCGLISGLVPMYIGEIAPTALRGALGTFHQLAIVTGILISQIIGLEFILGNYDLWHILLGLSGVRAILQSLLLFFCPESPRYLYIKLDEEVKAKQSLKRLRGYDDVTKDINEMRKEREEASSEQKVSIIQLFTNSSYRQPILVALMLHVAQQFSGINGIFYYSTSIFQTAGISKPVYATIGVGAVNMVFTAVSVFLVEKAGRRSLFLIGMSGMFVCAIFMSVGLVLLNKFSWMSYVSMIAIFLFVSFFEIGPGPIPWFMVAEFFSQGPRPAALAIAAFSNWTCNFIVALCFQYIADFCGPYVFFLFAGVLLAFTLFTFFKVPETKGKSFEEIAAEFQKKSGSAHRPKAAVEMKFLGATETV
Briefly: D-[U-14C]-glucose transport across Caco-2/TC7 monolayers under Na+-free conditions (only GLUT2 active). It is filed as cell-based. The following applies: for apparent increase in inhibitory activity under Na+-free conditions: versus Na+ present. The source says:
To dissect the mechanism of inhibition of glucose transport, we conducted D-[U-^14C]-glucose transport experiments under Na^+-free conditions where only GLUT2, and not SGLT1, is active. […] When tested in combination under Na^+-free conditions, apigenin 7-O-glucoside and apigenin (Fig. 6C-3) were responsible for ~80% of the inhibitory activity observed by the whole ChE (p < 0.05) (Fig. 6C-4).
Since the main inhibition we found was on GLUT2, we investigated the binding affinities of apigenin and apigenin 7-O-glucoside. […] This was also confirmed by functional assays where the rate of D-[U-^14C]-glucose transport under Na^+-free conditions was the same from apical to basolateral compartments and vice versa (Fig. 7B). Inhibition constants for the exofacial glucose transporter inhibitor 4,6-O-ethylidene glucose and the endofacial glucose transporter inhibitor cytochalasin B on basolateral to apical D-[U-^14C]-glucose transport were compared to those for apigenin and apigenin 7-O-glucoside (Fig. 7C–E). […] This comparison is made assuming that the position of GLUT2 is the same when facing the apical and the intracellular space, which seems to hold based on the rate of D-[U-^14C]-glucose transport across the monolayers in both directions.
(§1) Caco-2/TC7 cells were cultured and transport experiments performed as fully described before.

Series [5] can be described thus: enzymatic hydrolysis by digestive hydrolytic enzymes (hesperidinase, acetone rat intestinal extract). It is filed as in vitro ADME. How it is done: Supplementary S3. Enzymatic hydrolysis of Kaempferol 3-O-glucoside (positive control) and (E)-MCAG. (A) Kaempferol 3-O-glucoside standard (300 µM). (B) Kaempferol standard (100 uM). (C) Kaempferol 3-O-glucoside hydrolysed with hesperidinase. (D) Kaempferol 3-O-glucoside hydrolysed with acetone rat intestinal extract. (E) Kaempferol 3-O-glucoside hydrolysed with pancreatin. (F) (E)-MCAG (500 µM) hydrolysed with hesperidinase. (G) (E)-MCAG (500 µM) hydrolysed hydrolysed with acetone rat intestinal extract. The enzymatic hydrolysis were conducted with 50 mg/mL of the respective enzyme for 3 h at 37 °C.

In series [6] the test system is Caco-2/TC7 cells. The series is described as follows: D-[U-14C]-glucose transport across Caco-2/TC7 cell monolayers in the presence of Na+. Format: cell-based. The following applies: for effect on D-[U-14C]-glucose transport: data not shown.
Source text: (§2) Caco-2/TC7 cells transported 0.08 mmol of D-[U-^14C]-glucose from the apical to the basolateral compartment across the cell monolayers in the presence of Na^+, where the sugar transporter Na^+/glucose co-transporter 1 (SGLT1) is active, in addition to the facilitated transporters GLUT2 and GLUT5 (Fig. 6A-1). D-[U-^14C]-sucrose must first be hydrolysed by brush border sucrase and the resulting products, fructose and glucose, are transported into and across the cells.
as §1

For series [7], the system named is Caco-2/TC7 cells. Briefly: D-[U-14C]-fructose transport across Caco-2/TC7 cell monolayers. Format: cell-based. The settings on record: data not shown.
Source text: as §2, §1

For series [8], the system named is Caco-2/TC7 cells. Briefly: D-[U-14C]-sucrose transport across Caco-2/TC7 cell monolayers. It is filed as cell-based. The settings on record: data not shown.
Source text: as §2, §1

In series [9] the test system is GLUT1. More on the design: method as in PMID 24932809. The settings on record: cited from earlier work.
Series [10] can be described thus: solubility limit in enzyme assay. Format: physicochemical.
The test system of series [11] is GLUT1. More on the design: method as in PMID 26238658. The settings on record: cited from earlier work.
Details of series [12]: method as in PMID 12086760, PMID 12876091. The following applies: population with impaired glucose tolerance; cited from earlier work.

As to `O=c1c(O)c(-c2ccc(O)c(O)c2)oc2cc(O)cc(O)c12` [quercetin], the IC50 was under 100 µM on human α-amylase [1], 71 µM on sucrase-isomaltase and 216 µM on maltase-glucoamylase.

Turning to `O=c1cc(-c2ccc(O)cc2)oc2cc(O[C@@H]3O[C@H](CO)[C@@H](O)[C@H](O)[C@H]3O)cc(O)c12` [apigenin 7-O-glucoside, apigenin-7-O-glucoside], the “inhibition of rat intestinal α-glucosidase activity” value in series [2] is reported as “inhibited”. Also, the “IC50 yeast α-glucosidase” value at yeast α-glucosidase is 29.7 µg/mL (≈ 68.7 µM). For the same compound, the affinity on human α-amylase [3] corresponds to a Ki of 17 ± 4 µM. The “fold lower inhibition of human α-amylase than apigenin” value at human α-amylase [3] (in vitro results) was ~ 10 fold. Also, the “in vitro conversion to apigenin” value with Caco-2/TC7 cells [4] is given as “negligible”. Further, the “fold lower inhibition of transport basolateral to apical versus apical to basolateral” value (shortened to “fold lower inhibition … to basolateral”) at GLUT2 (Na+-free) stood at 3 fold. The “apparent increase in inhibitory activity under Na+-free conditions” value at GLUT2 is ~ 50%.

Take `O=C(O[C@@H]1Cc2c(O)cc(O)cc2O[C@@H]1c1cc(O)c(O)c(O)c1)c1cc(O)c(O)c(O)c1` [EGCG]: the concentration for half-maximal inhibition (IC50) at human α-amylase [1] was under 100 µM.

Turning to `COc1ccc(/C=C/C(=O)O)c(O[C@@H]2O[C@H](CO)[C@@H](O)[C@H](O)[C@H]2O)c1` [(E)-MCAG, (E)−2-β-D-Glucopyranosyloxy-4-methoxycinnamic acid], the “substrate for rat intestinal enzymes” value in series [5] is “not a substrate”. Moreover, the “resistance to digestive hydrolytic enzymes” value in [5] (500 µM, 50 mg/mL enzyme, 3 h at 37 °C) is “resistant”. Further, the “effect on D-[U-14C]-glucose transport” value in the series with Caco-2/TC7 cells [6] is reported as “no effect”. Further, in the series on Caco-2/TC7 cells [7], the “effect on D-[U-14C]-fructose transport” value is reported as “no effect”. For the same compound, at human α-amylase [3], the “maximum inhibition of human α-amylase” value is listed as ~ 20%. The “effect on D-[U-14C]-sucrose transport” value in the series with Caco-2/TC7 cells [8] is recorded as “no effect”.

Consider `CC1OC[C@H]2O[C@H](O)[C@H](O)[C@@H](O)[C@@H]2O1` (some centres unmarked) [4,6-ethylidine glucose, 4,6-O-ethylidene glucose, reference compound], for which, on GLUT2 (Na+-free), the “fold lower inhibition … to basolateral” value came to 3 fold. Further, the concentration for half-maximal inhibition (IC50) at GLUT2 (Na+-free, apical to basolateral, read-out: a → b IC50) worked out at 15000 µM.

For `O=c1ccc2cc(O)c(O)cc2o1` [esculetin], the IC50 on sucrase-isomaltase was 72 µM; on maltase-glucoamylase it was 534 µM.

Regarding `C=C1[C@@H](C)[C@H]2[C@H](Cc3ccccc3)NC(=O)[C@]23OC(=O)/C=C/[C@H](O)CCC[C@@H](C)C/C=C/[C@H]3[C@@H]1O` [Cytochalasin B, cytochalasin B, reference compound], the IC50 on GLUT2 (a → b IC50, Na+-free, apical to basolateral) amounted to 2.3 µM; at GLUT2 (b → a IC50, Na+-free, basolateral to apical), 7.6 µM.

`O=c1cc(-c2ccc(O)cc2)oc2cc(O)cc(O)c12` [apigenin]: the GLUT1 expression entry in the series with GLUT1 [9] was “lowered”. In addition, at yeast α-glucosidase, the concentration for half-maximal inhibition (IC50) is 22 µM and the “IC50 yeast α-glucosidase” value was 25.5 µg/mL (≈ 94.4 µM). The “inhibition of yeast α-glucosidase” value in the series with yeast α-glucosidase (p-nitrophenyl-glucopyranoside substrate) is given as “did not inhibit”. The solubility result in [10] is recorded as “limited solubility prohibited testing at concentrations >50 µM”. Also, the “fold higher effect than apigenin 7-O-glucoside at equivalent concentrations” value in the series on Caco-2/TC7 cells [6] (D-[U-14C]-glucose and D-[U-14C]-sucrose transport, apigenin 50 µM) was determined as 3 fold. For the same compound, on human α-amylase [3], the “fold increase in inhibitory activity on human α-amylase versus apigenin 7-O-glucoside” value is recorded as ~ 10 fold and the Ki was 146 ± 39 µM. The “fold lower inhibition … to basolateral” value at GLUT2 (Na+-free) amounted to 3 fold. Moreover, the “apparent increase in inhibitory activity under Na+-free conditions” value at GLUT2 is recorded as ~ 50%. Besides, the GLUT1 expression entry in the series on GLUT1 [11] is on record as “lowered”.

`O=c1cc(-c2ccc(O)c(O)c2)oc2cc(O)cc(O)c12` [luteolin]: the IC50 at human α-amylase [1] is under 100 µM.

Take `C[C@H]1O[C@H](O[C@H]2[C@H](O)[C@@H](O)[C@@H](O[C@H]3[C@H](O)[C@@H](O)C(O)O[C@@H]3CO)O[C@@H]2CO)[C@H](O)[C@@H](O)[C@@H]1N[C@H]1C=C(CO)[C@@H](O)[C@H](O)[C@H]1O` (some centres unmarked) [acarbose]: in [12], the “reduction of the risk of cardiovascular events” value is recorded as 49% and the “reduction of the risk of type 2 diabetes” value was 25%.

Take `COc1ccc(/C=C\C(=O)O)c(OC2O[C@H](CO)[C@@H](O)[C@H](O)[C@H]2O)c1` (stereo partly drawn) [(Z)-MCAG, (Z)-2-D-Glucopyranosyloxy-4-methoxycinnamic acid]: in the series with Caco-2/TC7 cells [6], the “effect on D-[U-14C]-glucose transport” value is on record as “no effect”. The “effect on D-[U-14C]-fructose transport” value in the series with Caco-2/TC7 cells [7] is given as “no effect”. Further, the “maximum inhibition of human α-amylase” value on human α-amylase [3] was ~ 25%. The “effect on D-[U-14C]-sucrose transport” value with Caco-2/TC7 cells [8] is on record as “no effect”.

(Values after article PMC5882934, “Acute metabolic actions of the major polyphenols in chamomile: an in vitro mechanistic study on their potential to attenuate postprandial hyperglycaemia” (Scientific Reports, 2018).)
